According to patent US8344022B2, “Vaginal health products” (Kimberly-Clark Worldwide, Inc., priority 2004, dated 2013):
“And” between values parts separate entries of the source, which are not always exact repeats. Identical values can stand only once. “Also recorded” adds a separate entry of the source.

Key:
ME-180 cells = experiment: ME-180 cell growth (cell counting) with vitamin E or vitamin A derivatives; assay type: cell-based, human; conditions: for effect on ME-180 cell growth: 1 nM, 10 nM and 100 nM; for ME-180 cell growth vs negative control (FIG. 2): 1 μM or 10 μM, two days; for ME-180 cell growth: three days
Experimental: Cell Culture. Human cervical epithelial cells (ME-180, ATCC) were propagated in culture at 37° C. using 5% CO2 in McCoy's 5A media (Invitrogen) with 10% heat-inactivated fetal bovine serum (Invitrogen). Vitamin E was purchased from ICN Biomedicals. Vitamin E stock solutions were made up in absolute ethanol.
ME-180 cells were incubated with vitamin E at various concentrations for three days. At 10 μM vitamin E, ME-180 cell growth was inhibited (data not shown). However, this may be due to the presence of a larger concentration of ethanol (used as a solvent for vitamin E) in the media. […] At 1 μM vitamin E, ME-180 cell growth was enhanced more than the corresponding negative control. At 100 nM vitamin E, cell growth was not effected in comparison to the negative control. Therefore, a concentration of 1 μM vitamin E was used to measure changes in RNA expression over a 24 hour period.
Cell Proliferation of ME-180 Cells. ME-180 cells were incubated with vitamin A derivatives for a period of up to 3 days. ME-180 cells were counted on each day.

stratum corneum = experiment: Dansyl chloride cell renewal study in healthy female volunteers; assay type: in vivo, human
Excerpt: The stratum corneum renewal time is the time taken for the whole thickness of the stratum corneum to be exfoliated and replaced by new cells from the dividing epidermis. This renewal time is a fundamental indicator of skin health. […] See Jansen L H, Hojyo-Tomoko M T, Kligman A M., Improved fluorescence staining technique for estimating turnover of the human stratum corneum, Br J Dermatol., 90, 9-12, 1974; Ridge B D, Batt M D, Palmer H E, Jarrett A, The dansyl chloride technique for stratum corneum renewal as an indicator of changes in epidermal mitotic activity following topical treatment., Br J Dermatol., 118, 167-74, 1988; Grove G L, Kligman A M, Age-associated changes in human epidermal cell renewal., J Geron., 38, 137-142, 1983. The time required for the dye to disappear is therefore an indication of the turnover time of the stratum corneum. Therefore, any differences in the time required for the dye to disappear from treated and non-treated sites can be considered to be an expression of that product's ability to enhance epidermal renewal.
A dansyl chloride cell renewal study was conducted in healthy female volunteers ranging from 43-64 years of age. The study consisted of a two-week treatment period during which time the products were applied topically twice daily, including on weekend days, to the test sites. The area of application was designated, approximately 5 cm×10 cm on the upper inner arm. The other arm served as a control with no product application. […] Eight females received jasmonic acid and seven females received gibberellic acid.
The time required for a marker dye to disappear was used as the measure of cell renewal rate.

human skin keratinocytes = experiment: Keratinocyte proliferation, 96-well Cell Titer 96 assay; assay type: cell-based; conditions: 1×10^−4 to 1×10^−6 M
Experimental: The proliferative response of these human skin keratinocytes to the test compounds was measured in a 96-well assay system using keratinocyte basal medium (KBM, Clonetics, catalog number CC-3103) as a control. […] In addition, 100 μl of vehicle KBM was added to 5 wells as control. […] The spectrophotometric absorbance of each well was read at 490 nm.

[1] = test system: collagen production in human skin fibroblast cell line; experiment: Collagen production by human skin fibroblasts (Takara EIA MK101); assay type: cell-based; conditions: 1×10^−4 to 1×10^−6 M
Experimental: The cells were first grown in a 96-well assay system using Dulbecco's Modified Eagle's Medium (DMEM) with 10% fetal bovine serum (FBS) both purchased from Sigma Chemical Co, St. Louis, Mo. Serum-free DMEM was used as a control.
The assay was done by using the recommended 20 ul of the supernatant from each well of the 96-well plate. Standard buffer and stop solutions were freshly prepared before running the assay. 100 ul of antibody-POD conjugate solution (supplied with the kit) was added into the wells using pre antibody coated 96 well plate (supplied with the kit). 20 ul of standard and test solutions (from the other 96-well plate containing fibroblasts) were added to appropriate wells. Plate was mixed gently, sealed and incubated for three hrs. at 37° C.
After incubation each well was washed carefully four times with PBS buffer (400 ul). All the wells were completely emptied at the end of washing from any liquid.
100 ul of substrate solution (hydrogen peroxide and tetramethylbenzidine in a buffer solution, supplied with the kit) was added to each well and the plate was incubated for 15 minutes. At this point 100 ul of stop solution (freshly prepared 1N H2SO4) was added to each well in the same order as substrate. The plate was gently mixed and absorbance was read at 450 nm.

[2] = test system: fibronectin production in human skin fibroblast cell line; experiment: Fibronectin production by human skin fibroblasts (Takara EIA MK115); assay type: cell-based; conditions: all concentrations tested, vs control
Experimental: The cells were first grown in a 96-well assay system using Dulbecco's Modified Eagle's Medium (DMEM) with 10% fetal bovine serum (FBS) both purchased from Sigma Chemical Co, St. Louis, Mo. Serum-free DMEM was used as a control. […] The fibronectin assay was performed using the recommended 100 μl of the supernatant from each well of the 96-well plate. Standard buffer and stop solutions were freshly prepared before running the assay. A pre-antibody-coated 96 well plate (provided with the kit) was used to transfer the test samples and control. The plate was mixed, sealed and incubated for 1 hour at 37° C. All the wells were washed after removing sample solutions, 3 times (300 μl) with washing buffer. 100 ul of antibody-POD conjugate solution was added into the wells. Plate was mixed, sealed and incubated for one hour at 37° C. Solutions were removed and the wells were washed 3 times with washing buffer. All the wells were completely emptied at the end of washing from any liquid. 100 μl of substrate solution (hydrogen peroxide and tetramethylbenzidine in a buffered solution) was added to each well and the plate was incubated at room temperature for 15 minutes. 100 μl of stop solution (freshly prepared 1N H2SO4) was added to each well in the same order as substrate. The plate was gently mixed and absorbance was read at 450 nm.

P2Y2 receptor gene = experiment: RT-PCR expression assay in ME-180 cells: P2Y2; assay type: cell-based, human
Experimental: (§1) RNA Extraction from ME-180 cells. ME-180 cells were plated at 2×10^5 cells per T75 flask (15 mL total volume) and were allowed to propagate for four days. On day four, the media was removed. Fifteen mL of McCoy's SA media with or without 10% FBS containing 0 or 1 μM vitamin E were added to ME-180 cells in duplicate. ME-180 cells were incubated with these solutions for 24 hours. The media was removed, and 1500 μL of lysis buffer was added to the flasks. The cells were scraped off of the flask with a cell scraper. The RNA was isolated using the Ambion RNAqueous kit according to the manufacturer's instructions. Precipitated RNA was resuspended in DEPC-treated water with 1 μL of RNase inhibitor.
(§2) Reverse Transcription of RNA. Approximately 7 μL of RNA was incubated with 3 μL of primer at 80° C. for 10 minutes then immediately placed on ice. A master mix containing 4 μL DEPC water, 4 μL 5× reaction buffer, 1 μL dNTPs, 1 μL of RNase inhibitor, and 1 μL of reverse transcriptase was made for the reactions. Ten μL of master mix was added to the RNA/primer solution and placed at 42° C. for 2 hours. The resulting cDNA was incubated with 3.5 μL of NaOH solution at 70° C. for 10 minutes to hydrolyze the remaining RNA. Five μL of 0.5M Tris/EDTA was added to neutralize the solution. To precipitate the cDNA, 125 μL of 3M NH4OAc, 5 μL of linear polyacrylamide, and 700 μL of absolute ethanol were added. The solutions were vortexed and placed at −20° C. overnight. Samples were centrifuged at 14000 rpm at 4° C. for 30 minutes. The ethanol was removed, and the samples were allowed to dry for 10 minutes. The cDNA was resuspended in 10-12 μL of PCR grade water.
Polymerase Chain Reaction (PCR). A master mix using the Advantage 2 PCR kit (Ambion) was made for the PCR reactions containing 37-38 μL of PCR grade water, 5 μL of 10×PCR buffer, 1 μL of dNTPs, 1 μL of β-actin primers (10 μM, optional control), and 2 μL of test primers (10 μM, P2Y2, or Mucin-4 (MUC-4)). Two microliters of cDNA and […] of DNA polymerase were added. […]

mucin-4 (MUC-4) = experiment: RT-PCR expression assay in ME-180 cells: mucin-4; assay type: cell-based, human; conditions: for MUC-4 expression: 100 nM vitamin A; for mucin-4 expression: 1 μM vitamin E, 24 hours
Experimental: as §1, §2
Polymerase Chain Reaction (PCR). A master mix using the Advantage 2 PCR kit (Ambion) was made for the PCR reactions containing 37-38 μL of PCR grade water, 5 μL of 10×PCR buffer, 1 μL of dNTPs, 1 μL of β-actin primers (10 μM, optional control), and 2 μL of test primers (10 μM, P2Y2, or Mucin-4 (MUC-4)). Two microliters of cDNA and […] of DNA polymerase were added. Cycling conditions were as follows: 5 min at 95° C.; 25-30 cycles (30 sec at 95° C., 1 min at 65° C., 3 min at 68° C.); 5 min at 68° C.
RNA was isolated (as described above) from ME-180 cervical cells treated with 0 nM or 100 nm vitamin A in the absence of serum. The RNA was reverse transcribed to form cDNA, and PCR techniques (as described above) were used to determine the effect of vitamin A on the expression of mucin-4 (MUC-4).

[3] = test system: vascular endothelial growth factor (VEGF); experiment: RT-PCR expression assay in ME-180 cells: VEGF; assay type: cell-based, human
[4] = test system: estrogen receptor alpha (ER-α); experiment: RT-PCR expression assay in ME-180 cells: ER-α; assay type: cell-based, human; conditions: 100 nM vitamin A, no serum, 4, 8 and 16 hours
Experimental: Cell samples exposed to vitamin A in the absence of serum were also tested for expression of other genes that may also affect atrophic vaginitis. Using primers designed to amplify the estrogen receptor alpha (ER-α) gene, PCR was performed using the RNA samples from cells starved of serum. The ER-α product (650 bp) was visible in the control (FIG. 4, lane 2), where the template was cDNA from ME-180 cells cultured in the presence of serum. […] However, in the samples that were exposed to 100 nM vitamin A but no serum for 4, 8, and 16 hours, the […] gene was expressed (Lanes 4-6, respectively). […] Increasing the amount of estrogen receptors on epithelial cells in the genital tract may increase the probability that a receptor will be activated by estrogen.

DTR = experiment: RT-PCR expression assay in ME-180 cells: DTR; assay type: cell-based, human; conditions: 1 μM vitamin E, 24 hours, absence of serum
[5] = 1 μM vitamin E, 24 hours, absence of serum

Compound: CC1=C(/C=C/C(C)=C\C=C\C(C)=C\C(=O)O)C(C)(C)CCC1 [9-cis-retinoic acid]
- effect on ME-180 cell growth (ME-180 cells): little effect

Compound: CC1=C(/C=C/C(C)=C/C=C/C(C)=C\C(=O)O)C(C)(C)CCC1 [13-cis-retinoic acid]
- effect on ME-180 cell growth (ME-180 cells): little effect
- ME-180 cell growth vs negative control (FIG. 2) (ME-180 cells): did not grow as well as the negative control
- toxicity to ME-180 cells (ME-180 cells; micromolar concentrations): toxic

Compound: C=C1C[C@]23C[C@@]1(O)CC[C@H]2[C@@]12C=C[C@H](O)[C@@](C)(C(=O)O1)[C@H]2[C@@H]3C(=O)O [gibberellic acid, Gibberellin A3]
- skin irritation or redness (stratum corneum; 0.25% topical twice daily, two weeks, all study volunteers): no visible sign of any skin irritation or redness
- RENEWAL, time for cell renewal of treated skin (stratum corneum; individual patients (one value per patient #), 0.25% in hyaluronic acid (0.5% aqueous solution), topical twice daily, upper inner arm, listed as GA): 14 Days (2×) and 12 Days (2×) and 19 Days and 17 Days and 21 Days
- faster cell renewal rate over control (stratum corneum; overall, 0.25% topical, vs untreated arm): 20%
- reduction in time required for cell renewal vs untreated control (stratum corneum; vs volunteers' control without treatment): about 20%
- cell proliferating activity on human keratinocytes (summary in words) (human skin keratinocytes): strong cell proliferating activity
- collagen production in human fibroblasts (summary in words) [1]: stimulate collagen production
- fibronectin production in human fibroblasts (summary in words) [2]: effective

Compound: CC1=C(/C=C/C(C)=C/C=C/C(C)=C/C(=O)O)C(C)(C)CCC1 [trans-retinoic acid]
- toxicity (conclusion of the ME-180 experiments) (ME-180 cells): nontoxic
- ME-180 cell growth compared with other agents or unexposed control (ME-180 cells; 1 nM to 100 nM experiment): growing slightly faster
- effect on ME-180 cell growth (ME-180 cells): little effect
- ME-180 cell growth vs negative control (FIG. 2) (ME-180 cells): more cells were present
- P2Y2 expression (P2Y2 receptor gene; 100 nM vitamin A, in the presence and in the absence of serum): increase
- MUC-4 expression (mucin-4 (MUC-4); absence of serum, 4 hours or 8 hours): detectable
- MUC-4 expression (mucin-4 (MUC-4); absence of serum, 16 hours): decreases but is still detectable
- VEGF expression ([3]; 100 nM vitamin A): increased
- ER-α expression [4]: expressed; also recorded: increase

Compound: vitamin E
- ME-180 cell growth (ME-180 cells; 100 nM vitamin E, vs negative control): not effected
- ME-180 cell growth (ME-180 cells; 1 μM vitamin E, vs negative control): enhanced
- ME-180 cell growth (ME-180 cells; 10 μM vitamin E, ethanol control also showed no growth): inhibited
- P2Y2 expression (P2Y2 receptor gene; [5]): no observable difference
- P2Y2 expression (P2Y2 receptor gene; 1 μM vitamin E, 24 hours, presence of serum): no significant changes
- DTR expression (DTR): no observable difference
- mucin-4 expression (mucin-4 (MUC-4); absence of serum): increases; also recorded: significantly increased
- mucin-4 expression (mucin-4 (MUC-4); presence of serum): no significant changes
- VEGF expression [3, 5]: no observable difference
